Laboratory results taken from paper PMC4667280, “Crystal structure of FadD32, an enzyme essential for mycolic acid biosynthesis in mycobacteria” (Scientific Reports, 2015).

Molecular target: T1, MsFadD32 (full-length FadD32 from M. smegmatis) (Mycolicibacterium smegmatis, UniProt A0R618)
T1 construct: full-length (N-terminal domain 1-483, C-terminal domain 484-630), expressed in E. coli BL21(DE3) as SUMO (SMT3) fusion; crystal of the SUMO fusion
T1 sequence (A0R618 1-630): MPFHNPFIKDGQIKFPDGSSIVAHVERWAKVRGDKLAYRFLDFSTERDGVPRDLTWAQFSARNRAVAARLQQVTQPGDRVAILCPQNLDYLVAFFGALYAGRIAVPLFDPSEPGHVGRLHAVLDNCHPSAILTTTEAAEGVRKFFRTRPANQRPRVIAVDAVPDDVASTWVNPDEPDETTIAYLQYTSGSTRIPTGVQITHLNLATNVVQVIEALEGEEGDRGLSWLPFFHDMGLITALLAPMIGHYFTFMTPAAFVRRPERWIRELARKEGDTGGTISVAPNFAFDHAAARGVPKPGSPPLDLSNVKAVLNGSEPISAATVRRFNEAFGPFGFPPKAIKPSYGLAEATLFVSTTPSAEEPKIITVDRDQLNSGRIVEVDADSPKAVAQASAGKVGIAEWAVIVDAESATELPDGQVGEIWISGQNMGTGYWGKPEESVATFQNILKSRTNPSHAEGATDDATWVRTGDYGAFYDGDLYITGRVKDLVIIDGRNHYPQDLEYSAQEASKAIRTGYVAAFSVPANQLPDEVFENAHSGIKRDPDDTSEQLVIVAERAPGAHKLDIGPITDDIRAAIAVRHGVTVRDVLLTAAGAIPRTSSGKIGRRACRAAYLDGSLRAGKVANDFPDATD
Assay: isothermal titration calorimetry; crystal structure of the complex at […] Å
Assay type: binding

Nc1ncnc2c1ncn2[C@@H]1O[C@H](COP(=O)(O)OP(=O)(O)OP(=O)(O)O)[C@@H](O)[C@H]1O [ATP]
Kd: ~36 µM
